Drawing on patent US8410112B2, “Compounds useful as inhibitors of ATR kinase” (Vertex Pharmaceuticals Incorporated, priority 2008, dated 2013), this text covers Ki for 25 compounds.

SMILES strings stand for the structures. A value given as a limit tells only on which side of the number the result lay.

The test deals with T1, full-length ATR (Homo sapiens, UniProt Q13535).
T1 construct: in the presence of 5 nM full-length ATR
T1 sequence (Q13535 whole entry): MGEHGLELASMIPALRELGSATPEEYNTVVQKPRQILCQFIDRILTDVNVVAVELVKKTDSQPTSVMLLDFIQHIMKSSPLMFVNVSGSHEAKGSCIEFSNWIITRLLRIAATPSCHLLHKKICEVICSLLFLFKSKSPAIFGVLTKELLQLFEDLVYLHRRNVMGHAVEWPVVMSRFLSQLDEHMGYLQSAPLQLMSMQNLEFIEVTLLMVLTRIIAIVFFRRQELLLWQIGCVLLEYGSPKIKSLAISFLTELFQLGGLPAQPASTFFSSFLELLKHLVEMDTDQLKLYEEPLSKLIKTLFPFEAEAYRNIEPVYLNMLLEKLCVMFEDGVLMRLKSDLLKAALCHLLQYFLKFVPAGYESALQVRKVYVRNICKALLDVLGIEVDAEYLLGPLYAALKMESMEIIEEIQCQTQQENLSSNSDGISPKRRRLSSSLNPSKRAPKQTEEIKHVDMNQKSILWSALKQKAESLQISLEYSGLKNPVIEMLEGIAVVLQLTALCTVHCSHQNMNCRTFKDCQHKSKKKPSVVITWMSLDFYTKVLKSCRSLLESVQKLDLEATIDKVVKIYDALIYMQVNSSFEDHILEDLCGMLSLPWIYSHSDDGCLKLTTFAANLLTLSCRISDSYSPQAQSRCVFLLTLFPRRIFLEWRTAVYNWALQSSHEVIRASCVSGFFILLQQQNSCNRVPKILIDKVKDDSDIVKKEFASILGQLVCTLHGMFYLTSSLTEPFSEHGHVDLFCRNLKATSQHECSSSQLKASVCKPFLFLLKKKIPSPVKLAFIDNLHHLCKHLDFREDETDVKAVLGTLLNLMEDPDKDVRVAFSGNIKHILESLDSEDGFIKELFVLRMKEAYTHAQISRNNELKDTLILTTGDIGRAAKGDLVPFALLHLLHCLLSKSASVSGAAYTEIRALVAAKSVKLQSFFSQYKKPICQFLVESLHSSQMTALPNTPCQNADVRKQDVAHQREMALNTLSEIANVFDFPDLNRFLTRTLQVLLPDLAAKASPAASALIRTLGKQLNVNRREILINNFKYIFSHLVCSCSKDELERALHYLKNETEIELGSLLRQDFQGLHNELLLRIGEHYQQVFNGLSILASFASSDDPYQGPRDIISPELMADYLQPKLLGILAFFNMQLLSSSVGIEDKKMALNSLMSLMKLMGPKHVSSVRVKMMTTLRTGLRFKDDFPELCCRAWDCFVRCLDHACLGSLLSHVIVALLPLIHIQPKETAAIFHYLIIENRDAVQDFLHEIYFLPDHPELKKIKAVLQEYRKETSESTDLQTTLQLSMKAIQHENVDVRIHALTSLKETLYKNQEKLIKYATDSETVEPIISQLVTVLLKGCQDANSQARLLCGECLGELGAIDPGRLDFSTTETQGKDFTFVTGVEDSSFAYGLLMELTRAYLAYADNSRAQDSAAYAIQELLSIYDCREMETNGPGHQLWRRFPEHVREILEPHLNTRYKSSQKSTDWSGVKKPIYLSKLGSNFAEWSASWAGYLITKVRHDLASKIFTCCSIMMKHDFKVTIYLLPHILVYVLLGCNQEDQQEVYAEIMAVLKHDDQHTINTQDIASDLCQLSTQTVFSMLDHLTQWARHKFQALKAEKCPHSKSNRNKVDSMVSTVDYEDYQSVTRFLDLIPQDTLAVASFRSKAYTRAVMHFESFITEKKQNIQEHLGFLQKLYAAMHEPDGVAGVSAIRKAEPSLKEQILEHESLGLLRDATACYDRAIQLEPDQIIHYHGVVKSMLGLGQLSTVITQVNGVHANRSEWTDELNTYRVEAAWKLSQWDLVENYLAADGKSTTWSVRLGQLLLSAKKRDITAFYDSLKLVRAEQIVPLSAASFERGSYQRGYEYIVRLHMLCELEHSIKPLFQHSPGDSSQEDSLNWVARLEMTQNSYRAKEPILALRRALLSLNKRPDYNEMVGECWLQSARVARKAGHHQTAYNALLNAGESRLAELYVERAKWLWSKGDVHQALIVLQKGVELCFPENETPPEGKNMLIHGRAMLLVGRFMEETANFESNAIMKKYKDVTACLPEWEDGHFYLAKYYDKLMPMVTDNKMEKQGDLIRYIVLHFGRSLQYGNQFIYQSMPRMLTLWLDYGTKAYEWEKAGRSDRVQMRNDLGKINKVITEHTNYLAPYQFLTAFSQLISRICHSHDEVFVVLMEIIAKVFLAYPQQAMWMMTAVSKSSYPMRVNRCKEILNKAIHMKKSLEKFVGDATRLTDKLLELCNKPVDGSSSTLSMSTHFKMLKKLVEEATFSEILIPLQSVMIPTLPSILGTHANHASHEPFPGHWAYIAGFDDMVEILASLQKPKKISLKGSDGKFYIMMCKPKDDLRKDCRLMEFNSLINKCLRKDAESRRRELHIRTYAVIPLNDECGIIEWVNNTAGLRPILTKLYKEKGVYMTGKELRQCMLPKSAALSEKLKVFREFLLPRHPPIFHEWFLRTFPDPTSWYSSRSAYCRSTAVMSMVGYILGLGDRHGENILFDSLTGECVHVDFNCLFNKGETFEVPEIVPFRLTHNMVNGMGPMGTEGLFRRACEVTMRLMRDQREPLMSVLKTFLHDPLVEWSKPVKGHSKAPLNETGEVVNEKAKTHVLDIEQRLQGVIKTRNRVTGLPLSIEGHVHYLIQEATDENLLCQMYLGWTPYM
In words: ATR Inhibition Assay (radioactive-phosphate incorporation). The class given is biochemical. As to conditions: Ki(app); 5 nM full-length ATR, 10 μM ATP, 800 μM target peptide, 25° C. In short, it runs like this:
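Buffer was 50 mM Tris/HCl pH 7.5, 10 mM MgCl2, 1 mM DTT, with 5 nM enzyme, 10 μM [γ-33P]ATP and 800 μM target peptide at 25 °C. Compound was pre-incubated 10 min before ATP start, and the reaction was stopped after 24 h. Phosphocellulose filter capture; Ki(app) came from non-linear regression of background-corrected initial rates.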
Take `CC#CCOC(=O)N1CC=C(c2cnc(N)c(-c3nnc(-c4ccccc4)o3)n2)CC1` [Compound I-115, but-2-ynyl 4-(5-amino-6-(5-phenyl-1,3,4-oxadiazol-2-yl)pyrazin-2-yl)-5,6-dihydropyridine-1(2H)-carboxylate]: the Ki was under 100 nM. The figure for `CCS(=O)(=O)N1CCN(c2cnc(N)c(-c3cc4ccccc4s3)n2)CC1` [Compound I-59, 3-(benzo[b]thiophen-2-yl)-5-(4-(ethylsulfonyl)piperazin-1-yl)pyrazin-2-amine] is 100 to 1000 nM; for `CCC(=O)N1CC=C(c2cnc(N)c(-c3nnc(-c4ccccc4)o3)n2)CC1` [Compound I-301, 1-[4-[5-amino-6-(5-phenyl-1,3,4-oxadiazol-2-yl)pyrazin-2-yl]-3,6-dihydro-2H-pyridin-1-yl]propan-1-one] it is under 100 nM; for `Nc1ncc(C2=CCN(S(=O)(=O)c3ccsc3)CC2)nc1-c1nc2ccccc2[nH]1` [Compound I-105, 3-(1H-benzo[d]imidazol-2-yl)-5-(1-(thiophen-3-ylsulfonyl)-1,2,3,6-tetrahydropyridin-4-yl)pyrazin-2-amine] it is under 100 nM. The figure for `CCOC(=O)N1CC=C(c2cnc(N)c(-c3nnc(-c4ccccc4)o3)n2)CC1` [Compound I-238, ethyl 4-(5-amino-6-(5-phenyl-1,3,4-oxadiazol-2-yl)pyrazin-2-yl)-5,6-dihydropyridine-1(2H)-carboxylate] is under 100 nM; for `Nc1ncc(C2=CCN(C(=O)N3CCOCC3)CC2)nc1-c1nnc(-c2ccccc2)o1` [Compound I-217, (4-(5-amino-6-(5-phenyl-1,3,4-oxadiazol-2-yl)pyrazin-2-yl)-5,6-dihydropyridin-1(2H)-yl)(morpholino)methanone] it is under 100 nM. In the case of `CCS(=O)(=O)N1CC=C(c2cnc(N)c(C(=O)Nc3n[nH]c4ccccc34)n2)CC1` [Compound I-169, 3-amino-6-(1-(ethylsulfonyl)-1,2,3,6-tetrahydropyridin-4-yl)-N-(1H-indazol-3-yl)pyrazine-2-carboxamide], the Ki was under 100 nM. As to `CCNCc1ccc(-c2nnc(-c3nc(N4CCCC4)cnc3N)o2)cc1` [Compound I-343, 3-[5-[4-(Aethylaminomethyl)phenyl]-1,3,4-oxadiazol-2-yl]-5-pyrrolidin-1-yl-pyrazin-2-amine], the Ki was under 100 nM. The figure for `CCS(=O)(=O)N1CCN(c2cnc(N)c(-c3nnc(-c4c(F)cccc4F)o3)n2)CC1` [Compound I-289, 3-[5-(2,6-difluorophenyl)-1,3,4-oxadiazol-2-yl]-5-(4-ethylsulfonylpiperazin-1-yl)pyrazin-2-amine] is 100 to 1000 nM; for `CC(=O)N1CC=C(c2cnc(N)c(-c3nc4ccccc4[nH]3)n2)CC1` [Compound I-136, 1-(4-(5-amino-6-(1H-benzo[d]imidazol-2-yl)pyrazin-2-yl)-5,6-dihydropyridin-1(2H)-yl)ethanone] it is under 100 nM; for `CN(C)CC(=O)N[C@H]1CCN(c2cnc(N)c(-c3nc4ccccc4[nH]3)n2)C1` [Compound I-184, (S)-N-(1-(5-amino-6-(1H-benzo[d]imidazol-2-yl)pyrazin-2-yl)pyrrolidin-3-yl)-2-(dimethylamino)ethanamide] it is 1000 to 10000 nM. Take `Nc1ncc(C2=CCN(S(=O)(=O)c3cccnc3)CC2)nc1-c1nc2ccccc2[nH]1` [Compound I-241, 3-(1H-benzo[d]imidazol-2-yl)-5-(1-(pyridin-3-ylsulfonyl)-1,2,3,6-tetrahydropyridin-4-yl)pyrazin-2-amine]: the Ki is under 100 nM. The figure for `CCCS(=O)(=O)N1CCN(c2cnc(N)c(-c3nc4ccccc4[nH]3)n2)CC1` [Compound I-95, 3-(1H-benzo[d]imidazol-2-yl)-5-(4-(propylsulfonyl)piperazin-1-yl)pyrazin-2-amine] is 100 to 1000 nM; for `CCNC(=O)[C@H]1CCCN1c1cnc(N)c(-c2nnc(-c3ccc(CNC)cc3)o2)n1` [Compound I-357, (2R)-1-[5-Amino-6-[5-[4-(methylaminomethyl)phenyl]-1,3,4-oxadiazol-2-yl]pyrazin-2-yl]-N-ethyl-pyrrolidine-2-carboxamide] it is 100 to 1000 nM. The figure for `Nc1ncc(N2CCN(C(=O)C3CCC3)CC2)nc1C(=O)Nc1ccccn1` [Compound I-145, 3-amino-6-(4-(cyclobutanecarbonyl)piperazin-1-yl)-N-(pyridin-2-yl)pyrazine-2-carboxamide] is 100 to 1000 nM; for `Nc1ncc(C2=CCNCC2)nc1-c1nc2ccccc2[nH]1` [Compound I-66, 3-(1H-benzo[d]imidazol-2-yl)-5-(1,2,3,6-tetrahydropyridin-4-yl)pyrazin-2-amine] it is 100 to 1000 nM.

As to `Nc1ncc(N2CCN(C(=O)C3CCCCC3)CC2)nc1C(=O)Nc1ccccn1` [Compound I-256, 3-amino-6-(4-(cyclohexanecarbonyl)piperazin-1-yl)-N-(pyridin-2-yl)pyrazine-2-carboxamide], the Ki fell in the range of 100 to 1000 nM. With `Nc1ncc(N2CCN(C(=O)Cc3ccccc3)CC2)nc1C(=O)Nc1ccccn1` [Compound I-141, 3-amino-6-(4-(2-phenylethanoyl)piperazin-1-yl)-N-(pyridin-2-yl)pyrazine-2-carboxamide] the figure was 1000 to 10000 nM; with `CCC(=O)N1CCN(c2cnc(N)c(-c3nnc(-c4ccc(CNC)cc4)o3)n2)C[C@H]1C(C)C` [Compound I-333, 1-[(2R)-4-[5-Amino-6-[5-[4-(methylaminomethyl)phenyl]-1,3,4-oxadiazol-2-yl]pyrazin-2-yl]-2-isopropyl-piperazin-1-yl]propan-1-one], 100 to 1000 nM; with `Nc1ncc(N2CCN(S(=O)(=O)c3ccccc3)CC2)nc1-c1nc2ccccc2[nH]1` [Compound I-110, 3-(1H-benzo[d]imidazol-2-yl)-5-(4-(phenylsulfonyl)piperazin-1-yl)pyrazin-2-amine], 100 to 1000 nM.

With `Cc1ccc2nc(-c3nc(N4CCNC(=O)CC4)cnc3N)[nH]c2c1` [Compound I-65, 1-(5-amino-6-(6-methyl-1H-benzo[d]imidazol-2-yl)pyrazin-2-yl)-1,4-diazepan-5-one], the Ki was 1000 to 10000 nM. Consider `CNCc1ccc(-c2nnc(-c3nc(N4C[C@@H]5[C@H](C4)[C@@H]5NS(=O)(=O)C(C)C)cnc3N)o2)cc1` [Compound I-370, N-[(1S,5R)-3-[5-Amino-6-[5-[4-(methylaminomethyl)phenyl]-1,3,4-oxadiazol-2-yl]pyrazin-2-yl]-3-azabicyclo[3.1.0]hexan-6-yl]propane-2-sulfonamide], for which the Ki is 100 to 1000 nM. With `Nc1ncc(N2C[C@@H]3CCC(O)[C@@H]3C2)nc1-c1nnc(-c2ccccc2)o1` (stereo in doubt) [Compound I-318, (3aR,6aS)-2-[5-Amino-6-(5-phenyl-1,3,4-oxadiazol-2-yl)pyrazin-2-yl]-3,3a,4,5,6,6a-hexahydro-1H-cyclopenta[c]pyrrol-6-ol] the figure was under 100 nM; with `Cc1ccc2nc(-c3nc(N4CCN(c5ncccn5)CC4)cnc3N)[nH]c2c1` [Compound I-35, 3-(6-methyl-1H-benzo[d]imidazol-2-yl)-5-(4-(pyrimidin-2-yl)piperazin-1-yl)pyrazin-2-amine], 1000 to 10000 nM; with `CC(C)C(=O)N1CC=C(c2cnc(N)c(-c3nc4cccnc4[nH]3)n2)CC1` [Compound I-67, 1-(4-(5-amino-6-(3H-imidazo[4,5-b]pyridin-2-yl)pyrazin-2-yl)-5,6-dihydropyridin-1(2H)-yl)-2-methylpropan-1-one], under 100 nM.
